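Interpolation was linear, between the two tested concentrations surrounding the appropriate level; five concentrations were tested over 48 hours in 96-well plates. At the GI50, growth is halved.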 Active and inactive are the calls of the source. No stated cut-off is given here; in the data, active = GI50 up to about 1.1 µM and inactive = higher.
Legend:
Assay in all cases: growth of human tumour cells (NCI), 48 h
786-0 = system: 786-0
A498 = system: A498
A549 = system: A549
ACHN = system: ACHN
BT-549 = system: BT-549
CCRF-CEM = system: CCRF-CEM
COLO 205 = system: COLO 205
DU-145 = system: DU-145
EKVX = system: EKVX
HCC 2998 = system: HCC 2998
HCT-116 = system: HCT-116
HCT-15 = system: HCT-15
HL-60 = system: HL-60
HOP-62 = system: HOP-62
HT-29 = system: HT-29
Hs-578T = system: Hs-578T
IGROV-1 = system: IGROV-1
K562 = system: K562
KM12 = system: KM12
LOX IMVI = system: LOX IMVI
M14 = system: M14
MCF7 = system: MCF7
MDA-MB-231 = system: MDA-MB-231
MDA-MB-435 = system: MDA-MB-435
MDA-N = system: MDA-N
MOLT-4 = system: MOLT-4
Malme-3M = system: Malme-3M
NCI-H226 = system: NCI-H226
NCI-H23 = system: NCI-H23
NCI-H460 = system: NCI-H460
NCI-H522 = system: NCI-H522
NCI/ADR-RES = system: NCI/ADR-RES
OVCAR-3 = system: OVCAR-3
OVCAR-4 = system: OVCAR-4
OVCAR-5 = system: OVCAR-5
OVCAR-8 = system: OVCAR-8
PC-3 = system: PC-3
RPMI-8226 = system: RPMI-8226
RXF 393 = system: RXF 393
SF-268 = system: SF-268
SF-295 = system: SF-295
SF-539 = system: SF-539
SK-MEL-28 = system: SK-MEL-28
SK-MEL-2 = system: SK-MEL-2
SK-MEL-5 = system: SK-MEL-5
SK-OV-3 = system: SK-OV-3
SN12C = system: SN12C
SNB-19 = system: SNB-19
SNB-75 = system: SNB-75
SR = system: SR
SW-620 = system: SW-620
T47D = system: T47D
TK-10 = system: TK-10
U-251 = system: U-251
UACC-62 = system: UACC-62
UO-31 = system: UO-31
CAKI-1 = system: CAKI-1
HOP-92 = system: HOP-92
UACC-257 = system: UACC-257

Measured: GI50

O=C1NN=C(c2ccc(Cl)cc2)CC1C1C(=O)N(c2ccccc2)N=C1c1ccccc1 (configuration not stated)
inactive: 786-0 24.7 µM | A498 26.2 µM | A549 34 µM | ACHN 29.2 µM | BT-549 20 µM | CCRF-CEM 26.5 µM | COLO 205 41.8 µM | DU-145 53.7 µM | EKVX 35 µM | HCC 2998 26.8 µM | HCT-116 19.6 µM | HL-60 37.2 µM | HOP-62 32 µM | HT-29 32.9 µM | Hs-578T 18.8 µM | IGROV-1 35.7 µM | K562 30 µM | KM12 29 µM | LOX IMVI 18.2 µM | M14 37.8 µM | MCF7 40.5 µM | MDA-MB-231 35.9 µM | MDA-MB-435 31.6 µM | MDA-N 34.8 µM | MOLT-4 28.1 µM | Malme-3M 30.7 µM | NCI-H226 31.8 µM | NCI-H23 23.3 µM | NCI-H460 28.1 µM | NCI-H522 23.6 µM | NCI/ADR-RES 40.6 µM | OVCAR-3 27.5 µM | OVCAR-4 26.4 µM | OVCAR-5 28.9 µM | OVCAR-8 41.9 µM | PC-3 22.2 µM | RPMI-8226 37.1 µM | RXF 393 22.5 µM | SF-268 48.2 µM | SF-295 29.9 µM | SF-539 25.9 µM | SK-MEL-28 36.7 µM | SK-MEL-2 25.1 µM | SK-MEL-5 > 10 µM | SK-OV-3 39.5 µM | SN12C 34.4 µM | SNB-19 33.8 µM | SNB-75 23.2 µM | SR 93.1 µM | SW-620 30.5 µM | T47D 22.1 µM | TK-10 35.6 µM | U-251 33 µM | UACC-62 26.8 µM | UO-31 21.5 µM
31.3 µM: HCT-15

Cc1ccc(S(=O)(=O)Nc2ccccc2C=O)cc1
inactive: 786-0 16.3 µM | A498 30 µM | A549 27.1 µM | ACHN 17.7 µM | BT-549 18.6 µM | CAKI-1 23.9 µM | COLO 205 16.9 µM | DU-145 26.1 µM | EKVX 25 µM | HCT-116 14.8 µM | HL-60 11 µM | HOP-62 21.5 µM | HOP-92 2.35 µM | HT-29 22.8 µM | Hs-578T 15.8 µM | IGROV-1 17.4 µM | K562 8.15 µM | KM12 16.1 µM | LOX IMVI 13.8 µM | M14 19.3 µM | MCF7 12.4 µM | MDA-MB-231 15.1 µM | MDA-MB-435 10.5 µM | MDA-N 15.7 µM | MOLT-4 11.9 µM | Malme-3M 14.7 µM | NCI-H226 14.6 µM | NCI-H23 14.7 µM | NCI-H460 19.8 µM | NCI-H522 29 µM | NCI/ADR-RES 14.6 µM | OVCAR-3 16.9 µM | OVCAR-4 16.4 µM | OVCAR-5 25.1 µM | OVCAR-8 14.7 µM | PC-3 11.4 µM | RPMI-8226 5.62 µM | RXF 393 25.6 µM | SF-295 18.9 µM | SK-MEL-28 21.3 µM | SK-MEL-2 11.9 µM | SK-MEL-5 11.9 µM | SK-OV-3 26.8 µM | SN12C 16.1 µM | SNB-19 21.5 µM | SNB-75 18.3 µM | SR 18.2 µM | SW-620 17 µM | T47D 14.9 µM | TK-10 17.9 µM | U-251 13.1 µM | UACC-257 18 µM | UACC-62 12.5 µM | UO-31 10.7 µM
active: SF-539 0.569 µM
7.4 µM: HCT-15

From ChEMBL document CHEMBL1201862, “PubChem BioAssay data set” (2004)
